Laboratory results reported in patent publication US5444042A, “Method of treatment of neurodegeneration with calpain inhibitors” (Cortex Pharmaceuticals, priority 1994, dated 1995).
pIC50, pKi: −log10 of the molar value. Like-named read-outs stand apart in the source and are kept apart here.

Columns and labels:
Papain = molecular target: T1, Papain (Carica papaya, UniProt P00784); assay: Papain inhibition, Ki by Dixon plot (Table PKC1); type: biochemical; conditions: 5 mM cysteine, 25° C.
T1 sequence (P00784 134-345): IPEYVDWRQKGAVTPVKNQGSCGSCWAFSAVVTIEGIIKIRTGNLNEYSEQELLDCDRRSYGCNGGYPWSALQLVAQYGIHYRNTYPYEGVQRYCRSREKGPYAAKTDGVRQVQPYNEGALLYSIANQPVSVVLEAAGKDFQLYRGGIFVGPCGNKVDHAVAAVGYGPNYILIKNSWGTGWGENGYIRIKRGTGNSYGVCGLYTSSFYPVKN
Method: (§1) Various concentrations of inhibitors in dimethylsulfoxide (DMSO) were added to the assay mixture, which contained buffer and substrate. The reaction was started by the addition of the enzyme and the hydrolysis rates were followed spectrophotometrically or fluorimetrically. 88 mM KH2 PO4, 12 mM Na2 HPO4, 1.33 mM EDTA, 2.7 mM cysteine, pH 6.0 was used as a buffer for cathepsin B; and 20 mM Hepes, 10 mM CaCl2, 10 mM β-mercaptoethanol, pH 7.2 buffer was utilized for calpain I and calpain II.
(§2) All peptide thioester hydrolysis rates were measured with assay mixtures containing 4,4'-dithiodipyridine [e324=19800 M-1 cm-1; Grasetti & Murray, Arch. Biochem. Biophys. 119, pp 41-49 (1967)]. Papain was assayed with Bz-Arg-AMC or Bz-Arg-NA [Kanaoka et al., Chem. Pharm. Bull. 25, 3126-3128 (1977)], and the AMC (7-amino-4-methylcoumarin) release was followed fluorimetrically (excitation at 380 nm, and emission at 460 nm). Cathepsin B was assayed with Z-Arg-Arg-AFC [Barrett and Kirschke, Methods Enzymol. 80, 535-561 (1981)], and the AFC (7-amino-4-trifluoromethylcoumarin) release was followed fluorimetrically (excitation at 400 nm, and emission at 505 nm). Calpain I from human erythrocytes and calpain II from rabbit were assayed using Suc-Leu-Tyr-AMC [Sasaki et al., J. Biol. Chem. 259, 12489-12494 (1984), hereby incorporated by reference], and the AMC (7-amino-4-methylcoumarin) release was followed fluorimetrically (excitation at 380 nm, and emission at 460 nm). Enzymatic hydrolysis rates were measured at various substrate and inhibitor concentrations, and Ki values were determined by Dixon plot.
The inhibition constants for papain shown in Table PKC1 were measured in 0.05M Tris-HCl, pH 7.5 buffer, containing 2 mM EDTA, 5 mM cysteine (freshly prepared), 1% DMSO, at 25° C., using N^α -Benzoyl-Arg-AMC as a substrate, except that those values of inhibition constants for papain marked with an "e" in Table PKC1 were measured in 50 mM Tris-HCl, pH 7.5 buffer, containing 20 mM EDTA, 5 mM cysteine, 9% DMSO, at 25° C., using N^α -Benzoyl-Arg-NA as a substrate.

Cathepsin B [1] = molecular target: T2, Cathepsin B (Bos taurus, UniProt P07688); assay: Cathepsin B inhibition, Z-Arg-Arg-AFC (Table PKC1); type: biochemical; conditions: pH 6.0 phosphate buffer, substrate Z-Arg-Arg-AFC; read-out: Ki CB (Cathepsin B)
Method: as §1, §2

Calpain within platelets = assay: Platelet membrane permeation assay, spectrin proteolysis (Examples 4A, 4B); type: cell-based, rat; conditions: for inhibition of Calpain within platelets: A23187 1 μM; for pIC50: concentration at which 50% of the Calpain activation present in controls occurred; for effect on intracellular (platelet) Calpain: concentration not given
Method: Platelets were isolated by a modification of the method of Ferrell and Martin, J Biol. Chem., 264:20723-20729 (1989), the disclosure of which is hereby incorporated by reference. Blood (15-20 ml) was drawn from male Sprague-Dawley rats into 100 mM EDTA-citrate containing 10 units heparin, and centrifuged 30 minutes at 1600 rpm at room temperature. The plasma was resuspended in 15 ml buffer 1 (136 mM NaCl, 2.7 mM KCl, 0.42 mM NaH2 PO4, 12 mM NaHCO3, 2 mM MgCl2, 2 mg/ml BSA (Sigma), 5.6 mM glucose, 22 mM Na3 Citrate pH 6.5) and platelets were isolated at 2200 rpm at room temperature of 25 minutes. Platelets were resuspended to 10^7 cells/ml in buffer 2 (136 mM NaCl, 2.7 mM KCl, 0.42 NaH2 PO4, 12 mM NaHCO3, 2 mM MgCl, 1 mg/ml BSA, 5.6 mM glucose, 20 mM HEPES pH 7.4) and allowed to "rest" for a minimum of 10 minutes at room temperature before use.
Platelets were incubated for 5 minutes in the presence of inhibitor. In order to provide sufficient intracellular calcium to activate Calpain, the calcium ionophore A23187 was added to a final concentration of 1 μM. After a further 5 minute incubation, the platelets were harvested by centrifugation (1 min 10,000×g) and resuspended in 10% sodium dodecyl sulfate, 10 mM Tris pH=8.0, 5% β-mercaptoethanol, 0.02% bromophenol blue, and heated to 95° C. for 5 min. Samples were subjected to SDS-PAGE on 6% mini gels and transferred to nitrocellulose (Schleicher and Schuell BAS3) for 2 hours at 100 mA/gel in an LKB Novablot. Filters were blocked for 10 minutes in 0.25% gelatin, 1% BSA, 0.25% Triton X100, 0.9% NaCl, 10 mM Tris-Cl pH 7.5, incubated overnight in the same solution containing antibody to rat spectrin, washed 3×10 minutes with 10 mM Tris-Cl pH 7.5, 0.5 % Triton X100, incubated 4 hours in wash buffer plus alkaline phosphatase conjugated goat anti-rabbit antibody (Biorad), and washed as above. Filters were developed using the Biorad AP conjugate substrate kit. Spectrin immunoreactivity on the filters was quantitated by densitometry.

Calpain I = molecular target: T3, Calpain I (Homo sapiens, UniProt P07384); assay: Calpain I KI (Table 1B(ii)); type: biochemical; conditions: Table 1B(ii)
T3 sequence (P07384 1-714): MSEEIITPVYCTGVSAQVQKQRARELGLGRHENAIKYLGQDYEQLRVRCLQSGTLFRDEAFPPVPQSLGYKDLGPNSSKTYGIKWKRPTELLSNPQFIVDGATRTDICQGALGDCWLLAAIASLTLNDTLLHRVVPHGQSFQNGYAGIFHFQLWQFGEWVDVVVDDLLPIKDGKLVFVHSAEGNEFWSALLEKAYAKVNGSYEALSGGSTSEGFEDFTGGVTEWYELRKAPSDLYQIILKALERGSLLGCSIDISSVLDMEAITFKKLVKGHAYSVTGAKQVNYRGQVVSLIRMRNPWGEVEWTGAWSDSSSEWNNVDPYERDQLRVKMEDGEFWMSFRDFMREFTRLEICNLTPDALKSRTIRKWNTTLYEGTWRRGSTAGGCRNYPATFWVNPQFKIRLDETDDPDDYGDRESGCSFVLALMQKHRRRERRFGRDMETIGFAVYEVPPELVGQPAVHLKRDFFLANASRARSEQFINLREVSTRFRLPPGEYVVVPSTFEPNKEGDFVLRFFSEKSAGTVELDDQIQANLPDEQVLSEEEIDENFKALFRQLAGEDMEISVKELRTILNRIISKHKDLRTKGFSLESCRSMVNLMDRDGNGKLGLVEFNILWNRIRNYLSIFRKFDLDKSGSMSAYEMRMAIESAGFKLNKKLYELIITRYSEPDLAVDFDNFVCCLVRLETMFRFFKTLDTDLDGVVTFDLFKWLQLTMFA
T3 sequence (P04632 1-268 partner): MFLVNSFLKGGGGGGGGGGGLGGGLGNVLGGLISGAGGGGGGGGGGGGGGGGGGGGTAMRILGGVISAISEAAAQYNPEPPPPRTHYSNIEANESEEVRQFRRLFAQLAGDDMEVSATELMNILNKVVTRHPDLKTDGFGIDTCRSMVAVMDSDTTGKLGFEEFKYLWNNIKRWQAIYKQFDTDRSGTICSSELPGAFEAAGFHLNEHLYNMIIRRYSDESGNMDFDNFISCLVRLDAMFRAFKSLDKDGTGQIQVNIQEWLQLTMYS
Text: (§3) We tested the ability of an additional group of Peptide Keto-Compounds to inhibit several proteases in order to evaluate their specificity for Calpain.

Calpain II = Calpain II KI (Table 1B(ii)); type: biochemical
Text: as §3

Cathepsin B [2] = molecular target: T2, Cathepsin B; assay: Cathepsin B KI (Table 1B(ii)); type: biochemical; conditions: read-out: KI CathB
Text: as §3

Chym = Chym (Bos taurus, UniProt P00766); assay: Chym KI (Table 1B(ii)); type: biochemical
Text: as §3

PP Elastase = PP Elastase (Sus scrofa, UniProt P00772); assay: PP Elastase KI (Table 1B(ii)); type: biochemical
Sequence of PP Elastase (P00772 27-266): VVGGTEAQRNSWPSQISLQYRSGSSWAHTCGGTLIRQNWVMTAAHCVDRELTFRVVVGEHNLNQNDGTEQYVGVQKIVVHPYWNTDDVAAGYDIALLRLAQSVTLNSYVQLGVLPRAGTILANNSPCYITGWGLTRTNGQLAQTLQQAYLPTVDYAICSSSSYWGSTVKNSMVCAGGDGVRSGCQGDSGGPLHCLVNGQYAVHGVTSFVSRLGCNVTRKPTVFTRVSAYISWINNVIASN
Text: as §3

Stability in plasma = type: in vitro ADME; conditions: unit assumed
Text: We determined the haft-life of several Peptide Keto-Compounds in both plasma and liver homogenates.

[3] = tested on: Calpain in crude brain extracts; assay: Ca2+-stimulated spectrin proteolysis in crude brain extracts (Example 2); type: biochemical; conditions: 100 μM
Method: The activity of Calpain in crude brain extracts was measured by examining the Ca^2+ -stimulated proteolysis of the endogenous substrate spectrin. Brain tissue was homogenized in 10 mM Tris pH=7.4, 0.32M sucrose, 1 mM EGTA, 1 mM dithiothreitol and the nuclei and debris removed by low speed centrifugation. […] Proteolysis of spectrin was evaluated by western blot as described by Seubert, et at. (Brain Research, 459:226-232, 1988), the disclosure of which is hereby incorporated by reference. Briefly, a known quantity of a spectrin-containing sample treated with Calpain is separated by SDS-PAGE and immunoblotted with anti-spectrin antibody. The amount of spectrin immunoreactivity found corresponding to the characteristic BDP's is indicative of the amount of […] activity present in the sample. An examplary method for quantitating BDP's is to assay Spectrin BDP's by homogenizing brain parts in 20 mM Tris pH=7.2, 0.32M sucrose, 50 μM Ac-Leu-Leu-nLeu-H on ice. Homogenates are then mixed 1:1 with 10% SDS, 5% β-mercaptoethanol, 10% glycerol, 10 mM Tris pH=8.0, 0.5% bromophenolblue, heated to 95° C., and subjected to electrophoresis in 41/2% polyacrylamide gels. The proteins in the gels are transferred to nitrocellulose and the spectrin and BDP's detected using a rabbit polyclonal anti-spectrin antibody and established immunodetection methods. The amount of spectrin and BDP's in each sample can be quantitated by densitrometric scanning of the developed nitrocellulose.

[4] = 0.05M Tris-HCl pH 7.5, 2 mM EDTA, 1% DMSO, substrate Nα-Benzoyl-Arg-AMC, read-out: Ki P (Papain)
[5] = 50 mM Tris-HCl pH 7.5, 20 mM EDTA, 9% DMSO, substrate Nα-Benzoyl-Arg-NA, read-out: Ki P (Papain), values marked e

SMILES	pKi (Papain; [4])	pKi (Cathepsin B [1])	inhibition of Calpain within platelets (Calpain within platelets; 100 μM)	pKi (Calpain I)	pKi (Cathepsin B [2])	pKi (Chym)	pKi (PP Elastase)	t1/2 plasma (Stability in plasma) [min]	further results
CCOC(=O)C(=O)C(Cc1ccccc1)NC(=O)C(Cc1ccccc1)NC(=O)OCc1ccccc1 (racemic) [Z-Phe-DL-Phe-COOEt]	5.74	7.00							
CCC(NC(=O)[C@H](C)NC(=O)[C@H](C)NC(=O)OCc1ccccc1)C(=O)C(=O)OCc1ccccc1 (mixture of isomers) [Z-Ala-Ala-DL-Abu-COOBzl, Z-Ala-Ala-DL-Abu-CO2 Bzl]	4.52	4.22	significant inhibition						
CCOC(=O)C(=O)C(CC)NC(=O)C(CC(C)C)NC(=O)C(CC(C)C)NS(=O)(=O)c1ccc2ccccc2c1 (stereo not drawn) [2-NapSO2 -Leu-Leu-Abu-COOEt]			significant inhibition	4.80	4.60	4.46	4.33	> 60	pKi (Calpain II): 5.85; pIC50 (Calpain within platelets): 4.00
CCOC(=O)C(=O)C(C)NC(=O)[C@@H]1CCCN1C(=O)[C@H](C)NC(=O)OCc1ccccc1 (mixture of isomers) [Z-Ala-Pro-DL-Ala-COOEt, Z-Ala-Pro-DL-Ala-CO2 Et]	4.59	4.18							
CCCC(NC(=O)C(C)NC(=O)C(C)NC(=O)OCc1ccccc1)C(=O)C(=O)OCC (racemic) [Z-Ala-Ala-DL-Nva-COOEt, Z-Ala-Ala-DL-Nva-CO2 Et]	4.52	7.00							
CCOC(=O)C(=O)[C@H](CC)NC(=O)[C@H](CC(C)C)NC(=O)[C@H](CC(C)C)NS(=O)(=O)c1ccc(C)cc1 [Tos-Leu-Leu-Abu-COOEt]				4.48	4.16	4.60	4.55	30	pIC50 (Calpain within platelets): 4.52
CCOC(=O)C(=O)C(C)NC(=O)C(Cc1ccccc1)NC(=O)OCc1ccccc1 (racemic) [Z-Phe-DL-Ala-COOEt]	5.44	5.49							
CCOC(=O)C(=O)C(Cc1ccccc1)NC(=O)c1ccccc1 (racemic) [Bz-DL-Phe-COOEt, Bz-DL-Phe-CO2 Et]		4.19							pKi (Papain; [5]): 3.30; inhibition of spectrin proteolysis in crude brain extracts [3]: significant inhibition; effect on intracellular (platelet) Calpain (Calpain within platelets): failed to exhibit Calpain inhibitory activity
COC(=O)CCC(=O)NC(C(=O)N1CCCC1C(=O)NC(Cc1ccccc1)C(=O)C(=O)OC)C(C)C (racemic) [MeO-Suc-Val-Pro-DL-Phe-COOMe, MeO-Suc-Val-Pro-DL-Phe-CO2 Me]	5.96	7.00							pKi (Papain; [5]): 5.54; inhibition of spectrin proteolysis in crude brain extracts [3]: significant inhibition; effect on intracellular (platelet) Calpain (Calpain within platelets): failed to exhibit Calpain inhibitory activity
CCCCOC(=O)C(=O)[C@H](Cc1ccccc1)NC(=O)[C@H](CC(C)C)NC(=O)OCc1ccccc1 [Z-Leu-Phe-COOnBu, Z-Leu-Phe-CO2 Bu]			significant inhibition	5.30	4.82	6.82	< 4.00	7.7	pKi (Calpain II): 5.96; platelet assay, semi-quantitative (Calpain within platelets; semi-quantitative, 100 μM): +++
